Assay [1] has as its system pancreatic tumours in KPC mice. Conditions: Science 2009; cited from earlier work.
In assay [2] the test system is advanced pancreatic cancer. Conditions: patients with advanced pancreatic cancer; cited from earlier work.
For assay [3], the system named is KPC cell line orthotopic pancreatic tumours. Particulars: treatment at the induction of tumours; over 49 days (FIG. 1); OPN-305 10 mg/kg i.v. once weekly, Gemcitabine 100 mg/kg i.p. twice weekly, Abraxane 10 mg/kg i.v. day 0.
Excerpt: A preclinical mouse model of pancreatic cancer was established where a KPC cell line derived from the genetically engineered ‘KPC’ mouse with pancreas-specific mutant Kras and mutant TP53 genetic background (LSL-KrasG12D; p53R172H, Pdx1-Cre) backcrossed several generations with C57Bl/6 mice was implanted as allograft, orthotopically in the pancreas of C57bl/6 (B6) mice. In brief, a subcutaneous tumour was first established by injecting 2.5 million cells under the skin of C57Bl/6 mice. Ten days later, the tumour was excised and chopped into smaller pieces, roughly 1 mm^3 in size, and implanted orthotopically into pancreas of C57Bl/6 mice. For orthotopic implantation into the pancreas, each mouse was anesthetized with 2.5% Avertin, 0.013 ml/g B.W. All surgical procedures were performed under aseptic conditions with use of sterile gloves and autoclaved instruments. The skin was disinfected with betadine followed by alcohol and this procedure was repeated twice. A left lateral oblique incision was made through the skin and then through the body wall just below the stomach. […] The growth of orthotopic tumours were measured over the period of 12-16 weeks by non-invasive ultrasound (Vevo2100, VisualSonic). […] The orthotopically implanted tumours were measured by ultrasound 5 days post-surgery and randomized into various treatment arms as below: • 1. […]

Consider `Nc1ccn([C@@H]2O[C@H](CO)[C@@H](O)C2(F)F)c(=O)n1` [Gemcitabine], for which the “tumours demonstrating a change in growth kinetics after treatment” value in assay [1] was 12%. The “improvement in median survival duration” value in assay [2] is 5 week.
On to “OPN-305: humanized version of T2.5, a murine IgG1 anti-TLR2 antibody; described in WO2011/003925”, for which the tumour volume result in assay [3] is “reduced tumour volume to a greater extent than treatment with a combination of Gemcitabine+Abraxane”.
